Patent publication US5700838A, “Hydroxamic acid derivatives as metalloproteinase inhibitors” (British Biotech Pharmaceuticals Limited, priority 1992, dated 1997)
≈ marks a conversion by molar mass, not a printed value. Read-outs that look alike come from different tables or passages of the source.

Legend:
[1] = test system: TNF α release from U937 cells; test: Inhibition of PMA-stimulated TNF α release from U937 cells (ELISA); assay type: cell-based; conditions: Homo sapiens, read-out: IC50 for release of TNF α (average concentration inhibiting release by 50% relative to control)
stromelysin [2] = molecular target: T1, stromelysin (Homo sapiens, UniProt P08254); test: biochemical
T1 sequence (P08254 100-477): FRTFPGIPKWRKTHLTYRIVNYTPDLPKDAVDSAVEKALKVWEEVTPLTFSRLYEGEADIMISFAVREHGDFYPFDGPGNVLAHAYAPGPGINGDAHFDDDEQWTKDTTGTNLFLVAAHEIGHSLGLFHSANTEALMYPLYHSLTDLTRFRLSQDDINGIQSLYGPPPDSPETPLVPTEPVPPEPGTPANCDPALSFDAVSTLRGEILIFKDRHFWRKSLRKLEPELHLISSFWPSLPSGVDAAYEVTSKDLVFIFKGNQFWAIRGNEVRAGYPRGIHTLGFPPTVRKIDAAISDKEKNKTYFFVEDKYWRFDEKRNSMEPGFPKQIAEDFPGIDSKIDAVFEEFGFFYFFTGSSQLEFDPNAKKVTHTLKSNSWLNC
Text: (§1) The casein was acetylated ^14 C casein prepared by the method of Cawston et al (ibid).

[3] = test system: HOSP1.P mammary carcinoma cells; test: Lung colonisation assay, rat mammary carcinoma model; assay type: in vivo
Procedure: The compound of example 1 above was tested for activity in vivo in a rat mammary carcinoma model. A lung colonisation assay was performed in order to determine whether the compound of example 1 above is effective in inhibiting lung colonisation by circulating HOSP1.P mammary carcinoma cells after oral administration.
HOSP1.P cells (1×10^5 cells/animal) were administered to two groups of 12 rats by injection into the jugular vein. The product of example 1 was administered p.o. to one group at 30 mg/kg at -4, +1, +6, +24 and +72 hours relative to tumor cell inoculation at 0 hours. The second (control) group received only vehicle (p.o.) by the same schedule. Animals were killed after 34 days. Lungs were removed and individual tumors counted after 24 hours fixation in Methacarn. […] (p<0.01, Mann-Whitney, two tailed).

[4] = Blood concentration over time after oral gavage in rats, determined as collagenase inhibitory activity of extracts; conditions: for AUC (0-6 h) in number of IC50's × hours: oral gavage, male rats, Example 1: average of two results; for AUC(0-t) at 6 h / Tmax: rat, po
Procedure: (§2) The concentration over time of compounds of the invention in the blood of laboratory animals following administration of the test compounds was measured.
(§3) Test compounds were administered by gavage to 6 male rats (300 g) per treatment group. Blood samples were removed by tail venepuncture at 0.5, 1.0, 2.0, 6.0 and 24 hours post administration. 0.4 ml of blood was placed into 4.5 ml tubes containing 0.1 ml acid citrate dextrose (ACD) as anti-coagulant. For extraction, 3 ml methanol was added and the precipitated blood pelletted by centrifugation (30 min at 3000 rpm). A 2 ml aliquot of supernatant was removed and concentrated by lyophilisation. The extract was redissolved in 200 μl DMSO and a 10 μl aliquot assayed for collagenase inhibitory activity.

[5] = Aqueous solubility at ambient temperature; assay type: physicochemical; conditions: in water
Procedure: The solubilities of compounds of the invention in water at ambient temperature were measured, and compared with comparison compounds C1 and C2 (identified in Biological Example A above).

[6] = test system: adjuvant-induced arthritis; test: Adjuvant-induced arthritis model (hindpaw swelling); assay type: in vivo, male Lewis rats; conditions: b.i.d. days 13 to 17, Example 1 dosed at 10 mg/kg
Procedure: The activities of the compound of example 1 above and comparison compound C1 (see Biological Example A above) were assessed in an adjuvant-induced arthritis model. Adjuvant arthritis was produced in male Lewis rats (Charles River) by a single intradermal injection of 0.75 mg of M. butyricum in light paraffin oil (Freunds complete adjuvant--FCA) into the base of the tail. The "secondary" lesion occurs after a delay of 10 days, and is characterised by inflammation of the […] volumes were measured plethysmographically by water displacement. The test compound was dosed b.i.d. from days 13 to 17. Paw volume on day 20 was measured and compared to that on day 13. The experiment was terminated on day 23.

collagenase [7] = molecular target: T2, collagenase (Homo sapiens, UniProt P03956); test: biochemical
T2 sequence (P03956 100-469): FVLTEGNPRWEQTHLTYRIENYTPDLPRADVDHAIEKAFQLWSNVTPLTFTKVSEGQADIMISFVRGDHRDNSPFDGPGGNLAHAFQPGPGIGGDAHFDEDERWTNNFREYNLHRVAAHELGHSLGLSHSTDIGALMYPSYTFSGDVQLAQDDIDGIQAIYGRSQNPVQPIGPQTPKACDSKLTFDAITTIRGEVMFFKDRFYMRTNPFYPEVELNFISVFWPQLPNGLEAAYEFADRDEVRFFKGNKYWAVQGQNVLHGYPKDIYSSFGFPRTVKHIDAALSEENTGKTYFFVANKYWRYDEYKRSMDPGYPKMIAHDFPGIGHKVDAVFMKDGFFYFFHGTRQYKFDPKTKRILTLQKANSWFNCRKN
Text: (§4) The samples were centrifuged to sediment undigested collagen, and an aliquot of the radioactive supernatant removed for assay on a scintillation counter as a measure of hydrolysis.

in vivo = conditions: rat, po
Procedure: as §2, §3

[8] = rat, in vivo, po, 360 min
Procedure: as §2, §3

collagenase [9] = molecular target: T2, collagenase; conditions: read-out: Collagenase IC50; 37°, 16 hours, pH 7.5
Text: as §4

stromelysin [10] = molecular target: T1, stromelysin; conditions: read-out: Stromelysin IC50; 37°, 16 hours, pH 7.5
Text: as §1

[11] = U-937, U937 cells, PMA 50 nM, 18 hours, 37° C.

| SMILES | IC50 (stromelysin [2]) [nM] | solubility [5] [µg/mL] | IC50 (collagenase [7]) [nM] | other results |
| --- | --- | --- | --- | --- |
| CNC(=O)[C@H](CC1CCCCC1)NC(=O)[C@H](CC(C)C)[C@H](O)C(=O)NO [Example 1, N^2-[3S-Hydroxy-4-(N-hydroxyamino)-2R-isobutylsuccinyl]-L-cyclohexyl alanine-N^1 methylamide] | 60 | 100 (≈ 269 µM) |  | IC50 [1, 11]: < 50000 nM; Lung Colony Number, Mean ([3]; 30 mg/kg p.o. at -4, +1, +6, +24, +72 hours, 34 days, control mean 70.50): 38.91; Lung Colony Number, Median ([3]; 30 mg/kg p.o. at -4, +1, +6, +24, +72 hours, 34 days, control median 71.50, p <0.01): 38.50; extrapulmonary tumors ([3]; 30 mg/kg p.o., 34 days): No extrapulmonary tumors were found; inhibition of lung colonisation relative to control group ([3]; 30 mg/kg p.o., p<0.01, Mann-Whitney, two tailed): significant inhibition of lung colonisation relative to the control group; AUC (0-6 h) in number of IC50's × hours [4]: 46.2 n IC50 's × h; AUC(0-t) at 6 h [4]: 143 ng·h/mL; Tmax [4]: 30 min; reduction in swelling relative to control (paw volume day 20 vs day 13) [6]: statistically significant (p<0.01) reduction in swelling relative to control |
| CNC(=O)[C@H](Cc1ccc(OCC(=O)O)cc1)NC(=O)[C@H](CC(C)C)[C@H](O)C(=O)NO [Example 2, N^2-[3S-Hydroxy-4-(N-hydroxyamino)-2R-isobutylsuccinyl]-L-(4-oxymethylcarboxy) phenylalanine-N^1-methylamide] | 200 | 13100 (≈ 29900 µM) | 30 | IC50 [1, 11]: < 50000 nM |
| CNC(=O)[C@@H](NC(=O)[C@H](CC(C)C)[C@H](O)C(=O)NO)c1ccccc1 [Example 3, N^2-[3S-Hydroxy-4-(N-hydroxyamino)-2R-isobutylsuccinyl]-L-phenylglycine-N^1-methylamide] |  | 2340 (≈ 6660 µM) | 100 |  |
| CNC(=O)[C@H](Cc1ccc(-c2ccccc2)cc1)NC(=O)[C@H](CC(C)C)[C@H](O)C(=O)NO [Example 4, N^2-[3S-Hydroxy-4-(N-hydroxyamino)-2R-isobutylsuccinyl]-L-(4-phenyl)-phenylalanine-N^1-methylamide] |  | 110 (≈ 249 µM) |  |  |
| CC(C)C[C@@H](C(=O)NC1CCCCCCCCCCNC1=O)[C@H](O)C(=O)NO (stereo partly drawn) [Example 5, N^3-[3S-Hydroxy-4-(N-hydroxyamino)-2R-isobutylsuccinyl]amino-1-azacyclotridecan-2-one] |  | 140 (≈ 350 µM) | 20 | IC50 [1, 11]: < 50000 nM |
| CNC(=O)[C@@H](NC(=O)[C@H](CC(C)C)[C@H](O)C(=O)NO)C(C)(C)C [Example 10, N^2-[3S-Hydroxy-4-(N-hydroxyamino)-2R-isobutylsuccinyl]-L-tert-leucine-N^1-methylamide] |  | 1400 (≈ 4220 µM) |  | IC50 ([1]; U-937, 18 h): < 50000 nM; AUC(0-t) at 6 h (in vivo): 343 ng·h/mL; Tmax (in vivo): 30 min; AUC (0-6 h) in number of IC50's × hours [8]: 190 n IC50 's × h |

The next lines start with results.

| IC50 (stromelysin [2]) [nM] | solubility [5] [µg/mL] | IC50 (collagenase [7]) [nM] | SMILES | other results |
| --- | --- | --- | --- | --- |
| 3000 | 330 (≈ 929 µM) | 30 | CNC(=O)[C@H](Cn1cccn1)NC(=O)[C@H](CC(C)C)[C@H](O)C(=O)NO [Example 6, N^2-[3S-Hydroxy-4-(N-hydroxyamino)-2R-isobutylsuccinyl]-L-3-(1-pyrazolyl)alanine-N^1-methylamide] |  |
| 500 | 180 (≈ 497 µM) | 150 | CNC(=O)[C@H](CCC(=O)NO)NC(=O)[C@H](CC(C)C)[C@H](O)C(=O)NO [Example 7, N^2-[3S-Hydroxy-4-(N-hydroxyamino)-2R-isobutylsuccinyl]-L-4-(N-hydroxyamino)glutamic acid-N^1-methylamide] |  |
| 100 |  | 10 | CNC(=O)[C@H](Cc1cccs1)NC(=O)[C@H](CC(C)C)[C@H](O)C(=O)NO [Example 8, N^2-[3S-Hydroxy-4-(N-hydroxyamino)-2R-isobutylsuccinyl]-L-3-(2-thienyl)alanine-N^1-methylamide] |  |
|  | 1800 (≈ 3730 µM) | 30 | CC(C)C[C@@H](C(=O)N[C@@H](CC1CCCCC1)C(=O)NCCCN1CCCC1=O)[C@H](O)C(=O)NO [Example 9, N^2-[3S-Hydroxy-4-(N-hydroxyamino)-2R-isobutylsuccinyl]-L-cyclohexyl alanine-N^1-(3-(2-pyrrolidone)propyl)amide] |  |
| 300 | 300 (≈ 747 µM) | 15 | CCOC(=O)[C@H](C)NC(=O)[C@H](CC(C)C)NC(=O)[C@@H](CC(=O)NO)CC(C)C [Example C1, reference compound] | AUC (0-6 h) in number of IC50's × hours [4]: 7.4 n IC50 's × h; AUC(0-t) at 6 h [4]: 91.7 ng·h/mL; Tmax [4]: 30 min; reduction in swelling relative to control (paw volume day 20 vs day 13) [6]: no effect |
|  | < 100 |  | CCOC(=O)CNC(=O)[C@H](CC(C)C)NC(=O)[C@H](CC(C)C)[C@H](CCCCN1C(=O)c2ccccc2C1=O)C(=O)NO [Example C2] | AUC (0-6 h) in number of IC50's × hours [4]: 2.12 n IC50 's × h; AUC(0-t) at 6 h [4]: 5.3 ng·h/mL; Tmax [4]: 60 min; IC50 (collagenase [9]): 7 nM; IC50 (stromelysin [10]): 70 nM |
